Data: patent US10526320B2, “Pyrrolidine derivatives as PPAR agonists” (GUANGDONG RAYNOVENT BIOTECH CO., LTD., priority 2016, dated 2020)

Each molecule was assayed against T1, PPAR Alpha (Homo sapiens, UniProt Q07869) (assay: PathHunter NHR protein interaction / nuclear translocation agonist test, PPAR Alpha). Settings: agonist mode; read-out: PPAR Alpha EC50.
T1 sequence (Q07869 1-468): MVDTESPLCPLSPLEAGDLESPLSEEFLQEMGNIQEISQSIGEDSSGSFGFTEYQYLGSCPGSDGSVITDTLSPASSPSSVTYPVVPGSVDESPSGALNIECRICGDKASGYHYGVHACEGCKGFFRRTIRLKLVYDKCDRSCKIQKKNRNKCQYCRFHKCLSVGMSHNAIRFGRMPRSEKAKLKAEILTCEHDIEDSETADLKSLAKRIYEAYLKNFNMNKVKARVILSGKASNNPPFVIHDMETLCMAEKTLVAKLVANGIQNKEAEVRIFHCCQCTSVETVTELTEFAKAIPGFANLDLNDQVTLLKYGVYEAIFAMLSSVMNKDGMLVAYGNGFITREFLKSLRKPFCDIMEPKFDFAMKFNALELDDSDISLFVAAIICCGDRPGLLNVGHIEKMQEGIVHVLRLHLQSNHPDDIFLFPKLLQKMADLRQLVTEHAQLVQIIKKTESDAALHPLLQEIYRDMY
Format: cell-based

SMILES | EC50 [nM]
CSc1ccc(C(=O)C2CN(C(=O)OC3CCCC3)CC2CCc2cc(C)c(OC(C)(C)C(=O)O)c(C)c2)cc1 (single isomer, unassigned) [Compound 74] | < 100
CSc1ccc(C(=O)C2CN(C(=O)Oc3ccc(Br)cc3)CC2Cc2cc(C)c(OC(C)(C)C(=O)O)c(C)c2)cc1 (stereo not drawn) [Compound 29] | < 100
CSc1ccc(C(=O)C2CN(C(=O)Oc3cccc(Cl)c3)CC2c2cc(C)c(OC(C)(C)C(=O)O)c(C)c2)cc1 (single isomer, unassigned) [Compound 38] | < 100
CSc1ccc(C(=O)[C@@H]2CN(C(=O)Oc3ccccc3)C[C@H]2CCc2cc(C)c(OC(C)(C)C(=O)O)c(C)c2)cc1 (single isomer, unassigned) [Compound 51] | < 100
CSc1ccc(C(=O)[C@@H]2CN(S(C)(=O)=O)C[C@H]2CCc2cc(C)c(OC(C)(C)C(=O)O)c(C)c2)cc1 (single isomer, unassigned) [Compound 75] | > 250
CSc1ccc(C(=O)C2CN(C(=O)Oc3ccc(F)cc3)CC2Cc2cc(C)c(OC(C)(C)C(=O)O)c(C)c2)cc1 (single isomer, unassigned) [Compound 28] | < 100

Same assay, conditions: read-out: PPAR Alpha Maximum Activation Response %

SMILES | Emax [%]
Cc1cc(CC[C@H]2CN(C(=O)Oc3ccccc3)C[C@@H]2C(=O)c2ccc(S(C)(=O)=O)cc2)cc(C)c1OC(C)(C)C(=O)O (racemic) [Compound 68] | 80 to 100
CSc1ccc(C(=O)C2CN(C(=O)OC3CCCC3)CC2CCc2cc(C)c(OC(C)(C)C(=O)O)c(C)c2)cc1 (single isomer, unassigned) [Compound 74] | 80 to 100
CSc1ccc(C(=O)C2CN(C(=O)Oc3ccc(Br)cc3)CC2Cc2cc(C)c(OC(C)(C)C(=O)O)c(C)c2)cc1 (stereo not drawn) [Compound 29] | 80 to 100
CSc1ccc(C(=O)C2CN(C(=O)Oc3cccc(Cl)c3)CC2c2cc(C)c(OC(C)(C)C(=O)O)c(C)c2)cc1 (single isomer, unassigned) [Compound 38] | 80 to 100
CSc1ccc(C(=O)[C@@H]2CN(S(C)(=O)=O)C[C@H]2CCc2cc(C)c(OC(C)(C)C(=O)O)c(C)c2)cc1 (single isomer, unassigned) [Compound 75] | 80 to 100
CSc1ccc(C(=O)C2CN(C(=O)Oc3ccc(F)cc3)CC2Cc2cc(C)c(OC(C)(C)C(=O)O)c(C)c2)cc1 (single isomer, unassigned) [Compound 28] | 80 to 100

Each molecule was assayed against T2, PPAR Delta (Homo sapiens, UniProt Q03181) (assay: PathHunter NHR protein interaction / nuclear translocation agonist test, PPAR Delta). Settings: agonist mode; read-out: PPAR Delta EC50.
T2 sequence (Q03181 1-441): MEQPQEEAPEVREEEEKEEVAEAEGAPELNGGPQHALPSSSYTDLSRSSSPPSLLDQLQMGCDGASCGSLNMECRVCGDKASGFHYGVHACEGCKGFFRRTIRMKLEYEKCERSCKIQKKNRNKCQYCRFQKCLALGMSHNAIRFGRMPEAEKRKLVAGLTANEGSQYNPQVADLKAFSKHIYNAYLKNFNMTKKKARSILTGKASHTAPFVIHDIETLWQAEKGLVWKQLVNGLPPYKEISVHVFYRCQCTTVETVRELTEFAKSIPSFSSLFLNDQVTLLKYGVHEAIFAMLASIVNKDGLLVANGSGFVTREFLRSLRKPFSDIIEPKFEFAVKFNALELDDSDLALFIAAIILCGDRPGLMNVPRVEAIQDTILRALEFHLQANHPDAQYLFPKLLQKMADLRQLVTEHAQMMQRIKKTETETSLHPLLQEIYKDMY
Format: cell-based

SMILES | EC50 [nM]
Cc1cc(CC[C@H]2CN(C(=O)Oc3ccccc3)C[C@@H]2C(=O)c2ccc(S(C)(=O)=O)cc2)cc(C)c1OC(C)(C)C(=O)O (racemic) [Compound 68] | > 250
CSc1ccc(C(=O)C2CN(C(=O)OC3CCCC3)CC2CCc2cc(C)c(OC(C)(C)C(=O)O)c(C)c2)cc1 (single isomer, unassigned) [Compound 74] | 100 to 150
CSc1ccc(C(=O)C2CN(C(=O)Oc3ccc(Br)cc3)CC2Cc2cc(C)c(OC(C)(C)C(=O)O)c(C)c2)cc1 (stereo not drawn) [Compound 29] | < 100
CSc1ccc(C(=O)C2CN(C(=O)Oc3cccc(Cl)c3)CC2c2cc(C)c(OC(C)(C)C(=O)O)c(C)c2)cc1 (single isomer, unassigned) [Compound 38] | 150 to 200
CSc1ccc(C(=O)[C@@H]2CN(C(=O)Oc3ccccc3)C[C@H]2CCc2cc(C)c(OC(C)(C)C(=O)O)c(C)c2)cc1 (single isomer, unassigned) [Compound 51] | < 100
CSc1ccc(C(=O)[C@@H]2CN(S(C)(=O)=O)C[C@H]2CCc2cc(C)c(OC(C)(C)C(=O)O)c(C)c2)cc1 (single isomer, unassigned) [Compound 75] | 200 to 250
CSc1ccc(C(=O)C2CN(C(=O)Oc3ccc(F)cc3)CC2Cc2cc(C)c(OC(C)(C)C(=O)O)c(C)c2)cc1 (single isomer, unassigned) [Compound 28] | < 100

Same assay, conditions: read-out: PPAR Delta Maximum Activation Response %

SMILES | Emax [%]
Cc1cc(CC[C@H]2CN(C(=O)Oc3ccccc3)C[C@@H]2C(=O)c2ccc(S(C)(=O)=O)cc2)cc(C)c1OC(C)(C)C(=O)O (racemic) [Compound 68] | 80 to 100
CSc1ccc(C(=O)C2CN(C(=O)Oc3ccc(Br)cc3)CC2Cc2cc(C)c(OC(C)(C)C(=O)O)c(C)c2)cc1 (stereo not drawn) [Compound 29] | 80 to 100
CSc1ccc(C(=O)[C@@H]2CN(C(=O)Oc3ccccc3)C[C@H]2CCc2cc(C)c(OC(C)(C)C(=O)O)c(C)c2)cc1 (single isomer, unassigned) [Compound 51] | 80 to 100
CSc1ccc(C(=O)C2CN(C(=O)Oc3ccc(F)cc3)CC2Cc2cc(C)c(OC(C)(C)C(=O)O)c(C)c2)cc1 (single isomer, unassigned) [Compound 28] | 50 to 80

Same assay, conditions: relative to known PPARδ agonist L-165,041 = 100%; read-out: PPAR Delta Maximum Activation Response %

SMILES | Emax [%]
CSc1ccc(C(=O)C2CN(C(=O)OC3CCCC3)CC2CCc2cc(C)c(OC(C)(C)C(=O)O)c(C)c2)cc1 (single isomer, unassigned) [Compound 74] | 80 to 100
CSc1ccc(C(=O)[C@@H]2CN(S(C)(=O)=O)C[C@H]2CCc2cc(C)c(OC(C)(C)C(=O)O)c(C)c2)cc1 (single isomer, unassigned) [Compound 75] | 80 to 100

The molecules below were run against T3, PPAR Gamma (Homo sapiens, UniProt P37231) (assay: PathHunter NHR protein interaction / nuclear translocation agonist test, PPAR Gamma). Settings: agonist mode; read-out: PPAR Gamma EC50.
T3 sequence (P37231 1-505): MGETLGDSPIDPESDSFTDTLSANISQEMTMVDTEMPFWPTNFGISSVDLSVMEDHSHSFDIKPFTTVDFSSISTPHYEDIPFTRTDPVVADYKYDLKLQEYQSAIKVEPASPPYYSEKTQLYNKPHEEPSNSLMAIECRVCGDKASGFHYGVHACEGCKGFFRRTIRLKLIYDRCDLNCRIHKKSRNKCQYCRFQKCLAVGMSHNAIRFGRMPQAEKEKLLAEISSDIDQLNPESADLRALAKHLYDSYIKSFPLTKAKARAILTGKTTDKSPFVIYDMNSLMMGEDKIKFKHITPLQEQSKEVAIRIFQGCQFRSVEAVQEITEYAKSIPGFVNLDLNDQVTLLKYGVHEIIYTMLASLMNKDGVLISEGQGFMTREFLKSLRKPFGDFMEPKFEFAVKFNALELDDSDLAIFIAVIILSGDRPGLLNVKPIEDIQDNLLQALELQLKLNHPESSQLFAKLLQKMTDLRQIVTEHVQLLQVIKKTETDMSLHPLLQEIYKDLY
Format: cell-based

SMILES | EC50 [nM]
Cc1cc(CC[C@H]2CN(C(=O)Oc3ccccc3)C[C@@H]2C(=O)c2ccc(S(C)(=O)=O)cc2)cc(C)c1OC(C)(C)C(=O)O (racemic) [Compound 68] | > 250

Same assay, conditions: relative to known PPARγ agonist Troglitazone = 100%; read-out: PPAR Gamma Maximum Activation Response %

SMILES | Emax [%]
Cc1cc(CC[C@H]2CN(C(=O)Oc3ccccc3)C[C@@H]2C(=O)c2ccc(S(C)(=O)=O)cc2)cc(C)c1OC(C)(C)C(=O)O (racemic) [Compound 68] | 80 to 100
